Experimental data reported in US12344631B2, “C17 polar-substituted heteroaromatic synthetic triterpenoids and methods of use thereof” (REATA PHARMACEUTICALS, INC., priority 2019, dated 2025).

What was measured:
RAW 264.7 cells = assay: Nitric oxide suppression assay (IFNγ-induced NO production); type: cell-based, mouse; settings: for IC50: Mus musculus, RAW264.7, RAW 264.7 cells, 2 h pretreatment, 20 ng/mL interferon gamma 24 h, nitrite by Griess, read-out: NO IC50 (nM) (Mean ± SD); for NO IC50 Relative to RTA 402 (fold) (Mean ± SD): average of ratios from replicate experiments, benchmark RTA 402
Description: Tissue Culture. RAW 264.7, a mouse macrophage cell line, was obtained from American Type Culture Collection (Manassas VA) and maintained in the log phase of growth in Roswell Park Memorial Institute Medium 1640 (RPMI 1640) supplemented with 10% heat inactivated fetal bovine serum (FBS) and 1% penicillin-streptomycin. Cells were cultured and maintained in a humidified incubator at 37° C. under 5% CO2. Cells were sub-cultured every 3 days. […] All cell culture supplies were obtained from Life Technologies (Grand Island, NY) and VWR (Radnor, PA). Nitric Oxide Suppression Assay. RAW 264.7 cells were plated 1 day in advance of experimental treatments at a concentration of 30,000 cells per well onto Falcon-96 well clear bottom plates (Corning, NY) in a total volume of 200 μL per well using RPMI 1640 supplemented with 0.5% fetal bovine serum and 1% penicillin-streptomycin. The next day, cells were pretreated with compounds serially diluted from 1000× stocks. All compounds were dissolved in dimethyl sulfoxide (DMSO) at 10 mM stock solutions. Compounds were subsequently diluted in DMSO and RPMI 1640. Each well received a final concentration of 0.1% DMSO. Cells were pretreated for 2 hours and incubation at 37° C., followed by treatment with 20 ng/mL of interferon gamma (R&D Systems, Minneapolis, MN) per well for 24 hours. […] Afterwards, 50 μL of cell culture supernatant was transferred from each well into a new Falcon-96 well clear bottom plate. […] Afterwards, air bubbles were removed using ethanol vapor and absorbance was measured using a Spectramax M2e plate reader with a wavelength set to 525 nm. Viability was assessed using WST-1 cell proliferation reagent from Roche (Basel, Switzerland). After media was removed for the Nitric Oxide suppression assay, 15 μL of WST-1 reagent was added to each well of cells. Plates were briefly mixed on an orbital shaker and the cells were incubated at 37° C. for 30 minutes. Absorbance was measured using a Spectramax M2e plate reader with wavelengths set to 440 nm and 700 nm. For the ability of compounds to suppress the increase in nitric oxide release caused by interferon gamma, the absolute amount of nitrite that was produced in each well was extrapolated from the nitrite standards using a linear regression fit. All values were then normalized to the DMSO-interferon gamma treated wells and plotted as percent nitric oxide. IC50 values were calculated with a dependence on WST1 viability using Excel and/or GraphPad Prism (San Diego, CA).

[1] = system: AREc32 reporter cell line (antioxidant response element of rat Gsta2, Nrf2 target gene); assay: AREc32 luciferase reporter activation; type: cell-based, human; settings: for AREc32 EC2X Relative to RTA 402 (fold) (Mean ± SD): average of ratios from replicate experiments, benchmark RTA 402; for EC (2-fold): human, Arec32, 19 h, concentration increasing luminescence signal 2-fold above vehicle, nineteen hours, read-out: AREc32 EC2X (nM) (Mean ± SD); for AREc32 Relative to CC in Same Experiment (Mean ± SD): average of ratios from experiments with direct comparisons
Description: […] The effect of several compounds disclosed herein on luciferase reporter activation was assessed in the AREc32 reporter cell line (see Table 10 and Table 11). This cell line is derived from human breast carcinoma MCF-7 cells and is stably transfected with a luciferase reporter gene under the transcriptional control of eight copies of the antioxidant response element from the rat Gsta2 gene, an Nrf2 target gene ([…] et al., 1990). […] Twenty-four hours after plating, cells were treated with vehicle (DMSO) or test compounds at concentrations ranging from 0.03 to 1000 nM for nineteen hours. Media was removed and 100 μL of 1:1 mixture of the One-Glo Luciferase assay reagent and culture medium was added to each well. After incubation for 5 min at room temperature, the luminescence signal was measured on a PHERAstar plate reader. The EC2X value was determined using Excel and GraphPad Prism software. The fold increase in luminescence signal for cells treated with each concentration of compound relative to cells treated with vehicle was determined and a dose-response curve was generated. The dose-response curve was fit using nonlinear regression analysis and used to extrapolate the EC2X value.

[2] = system: AML-12 hepatocyte cell line; assay: Glutathione assay (total glutathione, GSH-Glo); type: cell-based, mouse; settings: for EC50: Mus musculus, AML12, AML-12 cells, 24 hours, total glutathione, read-out: GSH EC50 (nM) (Mean ± SD); for GSH EC50 Relative to RTA 402 (fold) (Mean ± SD): benchmark RTA 402
Description: The effect of compound treatment on total glutathione levels was evaluated in the mouse AML-12 hepatocyte cell line. Glutathione—a tripeptide consisting of cysteine, glutamate, and glycine—is the major thiol-containing protein within the cell and regulates cellular redox balance. Glutathione also plays important roles in detoxification, protein glutathionylation, and iron-sulfur cluster biogenesis (Bachhawat and Yadav, 2018). Nrf2 regulates the expression of many genes involved in glutathione synthesis and metabolism, including both subunits of glutamate cysteine ligase (GCL), the enzyme that catalyzes the rate limiting step of glutathione biosynthesis (Thimmulappa et al., 2002). […] The next day, cells were treated with vehicle (DMSO) or test compound (0.03 nM to 1000 nM). Each well received a final concentration of 0.1% DMSO. Cells were incubated at 37° C., 5% CO2 for 24 hours. Total glutathione concentrations were measured using the GSH-Glo Glutathione Assay kit (Promega) according to the manufacturer's instructions. Briefly, a standard curve was prepared by serially diluting the provided glutathione solution. […] After a 30-minute incubation at room temperature, 100 μL of Luciferin detection reagent was added to all sample and standard wells and incubated for 15 minutes. Luminescence was measured using a PHERAstar plate reader. The EC50 value was determined using Excel and GraphPad Prism software. The basal concentration of glutathione was set to 0% and the highest concentration of glutathione produced following treatment with a test compound was set to 100% and a dose-response curve was generated. The dose-response curve was fit using nonlinear regression analysis and used to extrapolate the EC50 value.

SMILES	IC50 (RAW 264.7 cells) [nM]	NO IC50 Relative to RTA 402 (fold) (Mean ± SD) (RAW 264.7 cells)	AREc32 EC2X Relative to RTA 402 (fold) (Mean ± SD) [1]	EC (2-fold) [1] [nM]	EC50 [2] [nM]	GSH EC50 Relative to RTA 402 (fold) (Mean ± SD) [2]	AREc32 Relative to CC in Same Experiment (Mean ± SD) ([1]; comparison compound CC2)	AREc32 Relative to CC in Same Experiment (Mean ± SD) ([1]; comparison compound CC3)
CC1(C)CC[C@]2(c3noc(CO)n3)CC[C@]3(C)[C@H](C(=O)C=C4[C@@]5(C)C=C(C#N)C(=O)C(C)(C)[C@@H]5CC[C@]43C)[C@@H]2C1 [Compound T4]	1.82	0.48 ± 0.13	1.04 ± 0.02	10.5 ± 1.03	2.46 ± 1.8	0.89 ± 0.61	–	–
CC1(C)CC[C@]2(c3noc(CCO)n3)CC[C@]3(C)[C@H](C(=O)C=C4[C@@]5(C)C=C(C#N)C(=O)C(C)(C)[C@@H]5CC[C@]43C)[C@@H]2C1 [Compound T5]	1.57	0.42 ± 0.15	1.16 ± 0.19	11.7 ± 2.8	1.77 ± 0.98	0.65 ± 0.32	–	–
COCCc1nc([C@]23CCC(C)(C)C[C@H]2[C@H]2C(=O)C=C4[C@@]5(C)C=C(C#N)C(=O)C(C)(C)[C@@H]5CC[C@@]4(C)[C@]2(C)CC3)no1 [Compound T6]	2.95 ± 0.11	0.79 ± 0.29	1.77 ± 0.15	17.66 ± 0.1	2.9 ± 0.96	1.07 ± 0.28	–	–
CC1(C)CC[C@]2(c3nnn(CCO)n3)CC[C@]3(C)[C@H](C(=O)C=C4[C@@]5(C)C=C(C#N)C(=O)C(C)(C)[C@@H]5CC[C@]43C)[C@@H]2C1 [Compound T7]	1.13 ± 0.18	0.43 ± 0.13	1.10 ± 0.33	10.5 ± 3.66	2.87 ± 3.17	0.80 ± 0.59	–	–
CC1(C)CC[C@]2(c3nnn(CCF)n3)CC[C@]3(C)[C@H](C(=O)C=C4[C@@]5(C)C=C(C#N)C(=O)C(C)(C)[C@@H]5CC[C@]43C)[C@@H]2C1 [Compound T10]	2.2 ± 0.2	1.62 ± 0.16	2.41 ± 0.98	28.4 ± 9.42	1.45 ± 0.17	1.14 ± 0.03	–	–
CC1(C)CC[C@]2(c3nc(CCO)no3)CC[C@]3(C)[C@H](C(=O)C=C4[C@@]5(C)C=C(C#N)C(=O)C(C)(C)[C@@H]5CC[C@]43C)[C@@H]2C1 [Compound T13]	0.56	0.22 ± 0.07	0.37 ± 0.04	3.53 ± 0.98	2.04 ± 1.94	0.55 ± 0.33	0.44 ± 0.07	–
CC1(C)CC[C@]2(c3nc(CCN)no3)CC[C@]3(C)[C@H](C(=O)C=C4[C@@]5(C)C=C(C#N)C(=O)C(C)(C)[C@@H]5CC[C@]43C)[C@@H]2C1 [Compound T16]	1.26 ± 0.12	0.94 ± 0.19	0.30 ± 0.00	3.56 ± 0.31	0.58 ± 0.04	0.46 ± 0.09	–	–
Cc1nc([C@]23CCC(C)(C)C[C@H]2[C@H]2C(=O)C=C4[C@@]5(C)C=C(C#N)C(=O)C(C)(C)[C@@H]5CC[C@@]4(C)[C@]2(C)CC3)no1 [Compound T20]	3.79	1.30 ± 0.26	1.50 ± 0.18	21.5 ± 2.85	1.66 ± 0.66	0.96 ± 0.15	–	–
Cn1nnc([C@]23CCC(C)(C)C[C@H]2[C@H]2C(=O)C=C4[C@@]5(C)C=C(C#N)C(=O)C(C)(C)[C@@H]5CC[C@@]4(C)[C@]2(C)CC3)n1 [Compound T21]	1.89 ± 0.67	0.76 ± 0.36	1.67 ± 0.15	16.2 ± 4.2	3.18 ± 2.22	0.95 ± 0.34	–	–
CC1(C)CC[C@]2(c3nc(C(F)(F)F)no3)CC[C@]3(C)[C@H](C(=O)C=C4[C@@]5(C)C=C(C#N)C(=O)C(C)(C)[C@@H]5CC[C@]43C)[C@@H]2C1 [Compound T22]	23.9	7.71 ± 2.33	3.45 ± 0.69	54.6 ± 8.83	17.6 ± 0.59	8.72 ± 1.98	–	–
CCc1noc([C@]23CCC(C)(C)C[C@H]2[C@H]2C(=O)C=C4[C@@]5(C)C=C(C#N)C(=O)C(C)(C)[C@@H]5CC[C@@]4(C)[C@]2(C)CC3)n1 [Compound T23]	4.85	1.93 ± 0.54	1.43 ± 0.26	20.2 ± 2.51	3.26 ± 0.51	2.05 ± 0.44	2.41 ± 0.42	–
CCc1nc([C@]23CCC(C)(C)C[C@H]2[C@H]2C(=O)C=C4[C@@]5(C)C=C(C#N)C(=O)C(C)(C)[C@@H]5CC[C@@]4(C)[C@]2(C)CC3)no1 [Compound T24]	9.21	2.56 ± 0.62	2.50 ± 0.66	32.2 ± 2.59	6.11 ± 2.23	2.53 ± 0.52	–	–
CC1(C)CC[C@]2(c3noc(C4CC4)n3)CC[C@]3(C)[C@H](C(=O)C=C4[C@@]5(C)C=C(C#N)C(=O)C(C)(C)[C@@H]5CC[C@]43C)[C@@H]2C1 [Compound T25]	11.2 ± 2.09	3.08 ± 1.54	4.39 ± 0.23	44 ± 1.2	9.07 ± 1.55	3.36 ± 0.34	–	–
C[C@@H]1C(=O)C(C#N)=C[C@]2(C)C3=CC(=O)[C@@H]4[C@@H]5CC(C)(C)CC[C@]5(c5nc(C(F)F)no5)CC[C@@]4(C)[C@]3(C)CC[C@@H]12 [Compound T35]	5.48 ± 3.04	1.21 ± 0.21	0.73 ± 0.14	10.7 ± 1.02	1.99 ± 0.42	1.02 ± 0.04	–	1.66 ± 0.31
